From article PMC12155335, “Phenethyl Acetate as an Agonist of Insect Odorant Receptor Co-Receptor (Orco): Molecular Mechanisms and Functional Insights” (International Journal of Molecular Sciences, 2025)

Assays:
Or1a/Orco = target: T1, Or1a/Orco (Drosophila melanogaster, UniProt Q9VNB5+Q9W5G6); test: Two-electrode voltage-clamp in Xenopus laevis oocytes expressing Or1a/Orco; type: cell-based, D. melanogaster; settings: TEVC; for odorant-evoked inward current (activation): −80 mV, octanol 30 μM, PA 10 μM (Figure 2A)
T1 construct: expressed in transfected cells; host or cells: Xenopus laevis oocytes injected with in vitro transcribed mRNA (pGEM-HE)
T1 sequence (Q9W5G6 1-392): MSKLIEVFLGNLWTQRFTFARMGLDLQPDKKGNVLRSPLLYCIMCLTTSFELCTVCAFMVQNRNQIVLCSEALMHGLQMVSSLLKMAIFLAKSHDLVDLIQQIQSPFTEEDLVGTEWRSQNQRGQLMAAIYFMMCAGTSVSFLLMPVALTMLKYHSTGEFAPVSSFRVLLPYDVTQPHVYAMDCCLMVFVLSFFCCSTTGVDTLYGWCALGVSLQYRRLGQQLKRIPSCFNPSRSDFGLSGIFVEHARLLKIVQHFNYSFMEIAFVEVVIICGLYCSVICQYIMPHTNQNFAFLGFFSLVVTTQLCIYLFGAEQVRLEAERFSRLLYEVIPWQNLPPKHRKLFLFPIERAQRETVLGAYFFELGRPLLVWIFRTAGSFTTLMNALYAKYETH
T1 sequence (Q9VNB5 1-486): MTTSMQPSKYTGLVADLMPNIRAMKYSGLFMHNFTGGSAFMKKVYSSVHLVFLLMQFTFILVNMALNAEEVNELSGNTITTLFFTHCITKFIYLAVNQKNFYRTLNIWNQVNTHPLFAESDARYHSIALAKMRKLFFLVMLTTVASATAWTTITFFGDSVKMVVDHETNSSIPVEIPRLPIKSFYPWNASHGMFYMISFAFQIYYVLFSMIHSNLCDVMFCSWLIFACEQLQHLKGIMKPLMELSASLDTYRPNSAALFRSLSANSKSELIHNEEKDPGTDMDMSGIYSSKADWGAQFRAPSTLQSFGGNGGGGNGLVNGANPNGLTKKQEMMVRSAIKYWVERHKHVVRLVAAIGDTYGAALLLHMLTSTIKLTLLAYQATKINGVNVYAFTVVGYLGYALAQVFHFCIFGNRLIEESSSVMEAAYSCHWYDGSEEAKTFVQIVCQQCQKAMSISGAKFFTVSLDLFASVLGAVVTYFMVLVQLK
Protocol: (§1) The D. melanogaster Or subunits (Or1a, Or24a, and Or35a) (FlyBase IDs: FBgn0029521, FBgn0026394, and FBgn0028946) and the odorant receptor co-receptor Orco (FlyBase ID: FBgn0037324) were synthesized as complementary DNA by Cosmogenetech (Seoul, Republic of Korea). The synthesized cDNA constructs were subcloned into the pGEM-HE expression vector. Plasmid transformation was performed using Escherichia coli DH5α competent cells, and recombinant plasmids were isolated using a miniprep protocol. The integrity of the cloned sequences was confirmed by Sanger sequencing. For complementary RNA synthesis, D. melanogaster Or1a, Or24a, Or35a, and Orco cDNA were linearized with appropriate restriction endonucleases, and digestion efficiency was verified via agarose gel electrophoresis. In vitro transcription was carried out using T7 RNA polymerase (mMESSAGE mMACHINE T7 Transcription Kit; Thermo Fisher Scientific, Waltham, MA, USA). The resulting mRNA was precipitated, resuspended in DEPC-treated water, and stored at −80 °C for subsequent experiments.
(§2) Xenopus laevis frogs were obtained from the Korean Xenopus Resource Center for Research (KXRCR000001, Gangwon, Republic of Korea). The isolation and maintenance of Xenopus oocytes followed the standardized protocols described by Pyeon et al. and complied with the ethical guidelines of Chonnam National University (CNU IACUC-YB-2016-07, July 2016). Microinjection of 50 ng of mRNA per oocyte was performed using a nanoliter injector (Drummond Scientific, Vernon Hills, IL, USA). Following injection, the oocytes were incubated at 18 °C in a shaking incubator to facilitate optimal protein expression before electrophysiological recordings.
(§3) The two-electrode voltage-clamp (TEVC) experiments were conducted following established protocols as described in Lee et al.. […]
(§4) All values are presented as the mean ± S.E.M. (standard error of the mean) following data analysis. Data collected using the two-electrode voltage-clamp technique were analyzed with SigmaPlot 10.0 software. […]

Or24a/Orco = target: T2, Or24a/Orco (Drosophila melanogaster, UniProt P81913+Q9VNB5); test: Two-electrode voltage-clamp in Xenopus laevis oocytes expressing Or24a/Orco; type: cell-based, D. melanogaster; settings: TEVC; for odorant-evoked inward current (activation): −80 mV, octanol 10 μM, PA 10 μM (Figure 2B)
T2 construct: expressed in transfected cells; host or cells: Xenopus laevis oocytes injected with in vitro transcribed mRNA (pGEM-HE)
T2 sequence (P81913 1-398): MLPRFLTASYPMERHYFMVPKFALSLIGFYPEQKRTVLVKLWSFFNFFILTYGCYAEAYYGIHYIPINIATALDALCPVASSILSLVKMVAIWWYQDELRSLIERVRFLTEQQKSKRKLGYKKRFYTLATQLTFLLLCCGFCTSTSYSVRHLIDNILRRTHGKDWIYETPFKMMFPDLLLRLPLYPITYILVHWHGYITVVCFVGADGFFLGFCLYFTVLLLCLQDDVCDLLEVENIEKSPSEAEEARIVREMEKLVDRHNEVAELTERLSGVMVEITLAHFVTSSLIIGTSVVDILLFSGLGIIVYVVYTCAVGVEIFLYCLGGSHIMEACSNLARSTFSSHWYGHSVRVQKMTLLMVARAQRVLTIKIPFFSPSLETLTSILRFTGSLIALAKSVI
T2 sequence (Q9VNB5 1-486): T1 sequence (Q9VNB5 1-486)
Protocol: as §1, §2, §3, §4

Or35a/Orco = target: T3, Or35a/Orco (Drosophila melanogaster, UniProt Q9V3Q2+Q9VNB5); test: Two-electrode voltage-clamp in Xenopus laevis oocytes expressing Or35a/Orco; type: cell-based, D. melanogaster; settings: TEVC; for odorant-evoked inward current (activation): −80 mV, octanol 10 μM, PA 10 μM (Figure 2C)
T3 construct: expressed in transfected cells; host or cells: Xenopus laevis oocytes injected with in vitro transcribed mRNA (pGEM-HE)
T3 sequence (Q9V3Q2 1-409): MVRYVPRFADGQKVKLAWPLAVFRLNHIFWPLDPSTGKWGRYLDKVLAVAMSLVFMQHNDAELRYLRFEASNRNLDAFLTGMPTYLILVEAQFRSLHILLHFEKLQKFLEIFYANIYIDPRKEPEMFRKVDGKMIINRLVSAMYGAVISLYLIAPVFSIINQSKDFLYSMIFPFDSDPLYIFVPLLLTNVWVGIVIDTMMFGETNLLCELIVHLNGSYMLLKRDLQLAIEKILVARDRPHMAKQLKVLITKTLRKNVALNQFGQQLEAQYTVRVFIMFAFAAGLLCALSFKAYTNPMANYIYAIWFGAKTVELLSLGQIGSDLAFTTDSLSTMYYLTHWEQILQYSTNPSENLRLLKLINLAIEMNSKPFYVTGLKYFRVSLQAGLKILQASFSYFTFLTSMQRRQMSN
T3 sequence (Q9VNB5 1-486): T1 sequence (Q9VNB5 1-486)
Protocol: as §1, §2, §3, §4

Orco homomers = target: T4, Orco homomers (Drosophila melanogaster, UniProt Q9VNB5); test: Two-electrode voltage-clamp in Xenopus laevis oocytes expressing Orco homomers; type: cell-based; settings: for odorant-evoked inward current (activation): Orco alone, −80 mV, octanol 10 μM, PA 10 μM (Figure 2D)
T4 construct: expressed in transfected cells; host or cells: Xenopus laevis oocytes injected with Orco mRNA
T4 sequence (Q9VNB5 1-486): T1 sequence (Q9VNB5 1-486)
Protocol: as §1, §2
(§5) The two-electrode voltage-clamp (TEVC) experiments were conducted following established protocols as described in Lee et al.. This methodology ensures the accurate measurement of odorant receptor activation and has been widely used in previous studies on insect olfactory receptors. The molecular interaction between the odorant receptor (Or) and its ligand was examined using Or-expressing oocytes. Electrophysiological recordings were conducted with a two-electrode voltage-clamp system (OC-725C; Warner Instruments, Hamden, CT, USA) and digitized using a Digidata acquisition system (1322A; Molecular Devices, Sunnyvale, CA, USA). The oocyte membrane potential was clamped at −80 mV. Stock solutions of each compound were prepared by dissolving them in ND96 buffer (58.44 mM NaCl, 2 mM KCl, 1 mM MgCl2, 1.8 mM CaCl2, 5 mM HEPES, pH of 7.4) at the appropriate concentrations before use. […]
as §4

W146A Orco = W146A Orco (Drosophila melanogaster, UniProt Q9VNB5, W150A); test: Two-electrode voltage-clamp, W146A mutant Orco; type: cell-based, D. melanogaster
W146A Orco, sequence (Q9VNB5 whole entry W150A): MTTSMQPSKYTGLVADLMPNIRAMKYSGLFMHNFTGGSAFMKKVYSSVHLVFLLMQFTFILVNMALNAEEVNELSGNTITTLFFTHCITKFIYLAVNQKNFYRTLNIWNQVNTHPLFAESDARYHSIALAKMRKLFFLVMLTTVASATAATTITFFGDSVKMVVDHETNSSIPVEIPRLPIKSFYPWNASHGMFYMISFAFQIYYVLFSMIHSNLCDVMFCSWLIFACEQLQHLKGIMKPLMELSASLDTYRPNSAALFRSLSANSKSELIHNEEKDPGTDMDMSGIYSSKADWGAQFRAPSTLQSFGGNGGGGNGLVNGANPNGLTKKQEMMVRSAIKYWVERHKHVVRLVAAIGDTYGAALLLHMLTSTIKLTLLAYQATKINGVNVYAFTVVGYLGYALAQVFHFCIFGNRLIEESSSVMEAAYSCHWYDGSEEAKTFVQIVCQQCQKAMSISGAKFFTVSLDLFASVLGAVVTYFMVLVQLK
Protocol: as §2, §3
(§6) To validate the potential binding sites predicted by 3D protein–ligand docking simulations, molecular characterization was conducted through site-directed mutagenesis. […] The effect of these mutations on PA-binding affinity was evaluated through two-electrode voltage-clamp recordings.
as §4

E153A Orco = E153A Orco (Drosophila melanogaster, UniProt Q9VNB5); test: Two-electrode voltage-clamp, E153A mutant Orco; type: cell-based, D. melanogaster; settings: TEVC
Protocol: as §2, §3, §6, §4

[1] = system: double mutation (W146A + E153A) Orco; test: Two-electrode voltage-clamp, double-mutant Orco; type: cell-based, D. melanogaster; settings: TEVC (Figure 5)
Protocol: as §2, §3, §6, §4

uninjected oocytes = test: Two-electrode voltage-clamp control on uninjected oocytes; type: cell-based, Xenopus laevis; settings: control experiment, TEVC
Protocol: as §2
as §5, with “mV.” for “mV. Stock solutions of each compound were prepared by dissolving them in ND96 buffer (58.44 mM NaCl, 2 mM KCl, 1 mM MgCl2, 1.8 mM CaCl2, 5 mM HEPES, pH of 7.4) at the appropriate concentrations before use.”

[2] = system: Or1a, Or24a, and Or35a co-expressed with mutant Orco; test: Two-electrode voltage-clamp, Or1a, Or24a, Or35a co-expressed with mutant Orco; type: cell-based, D. melanogaster; settings: TEVC, 10 µM octanol, mutant Orco co-expressed with Ors
Protocol: as §2
The two-electrode voltage-clamp (TEVC) experiments were conducted following established protocols as described in Lee et al.. This methodology ensures the accurate measurement of odorant receptor activation and has been widely used in previous studies on insect olfactory receptors. The molecular interaction between the odorant receptor (Or) and its ligand was examined using Or-expressing oocytes. […]
as §6

[3] = Xenopus oocytes, holding potential −80 mV, mean ± SEM, read-out: half-maximal effective concentration (EC50)

| SMILES | EC50 (Or1a/Orco; [3]) [µM] | odorant-evoked inward current (activation) (Or1a/Orco) | EC50 (Or24a/Orco; [3]) [µM] | odorant-evoked inward current (activation) (Or24a/Orco) | EC50 (Or35a/Orco; [3]) [µM] | odorant-evoked inward current (activation) (Or35a/Orco) | odorant-evoked inward current (activation) (Orco homomers; TEVC) | voltage dependence of activation (current–voltage relationship) (Orco homomers; voltage ramps, PA 0.3 µM and 3 µM, Orco homomeric receptor (Figure 3D)) | EC50 (Orco homomers; wild-type Orco homomers, TEVC, Xenopus oocytes, holding potential −80 mV, mean ± SEM, read-out: half-maximal effective concentration (EC50)) [µM] | EC50 (W146A Orco) [µM] | PA-induced currents versus wild type (W146A Orco; single mutation W146A, TEVC, 10 µM PA (Figure 5)) | EC50 (E153A Orco; E153A Orco homomers, Xenopus oocytes, −80 mV) [µM] | PA-induced currents versus wild type (E153A Orco; single mutation E153A, 10 µM PA (Figure 5)) | PA activation versus wild type [1] | effect on uninjected oocytes (uninjected oocytes) | activation by octanol with mutant Orco [2] |
| --- | --- | --- | --- | --- | --- | --- | --- | --- | --- | --- | --- | --- | --- | --- | --- | --- |
| CC(=O)OCCc1ccccc1 [PA, phenethyl acetate] | 2.1 ± 1.2 | induced inward currents | 2.8 ± 0.2 | induced inward currents | 5.9 ± 1.1 | induced inward currents | induced inward currents | voltage-independent activation | 0.4 ± 0.2 | 17.9 ± 2.1 | significantly reduced | 12.8 ± 1.9 | significantly reduced | nearly abolished | no effect | – |
| CCCCCCCCO [octanol, reference compound] | – | induced robust inward currents | – | induced robust inward currents | – | induced robust inward currents | failed to activate | – | – | – | – | – | – | – | – | remained consistent |
